We go through four molecules from article PMC10002220, “In Vivo Reversal of P-Glycoprotein-Mediated Drug Resistance in a Breast Cancer Xenograft and in Leukemia Models Using a Novel, Potent, and Nontoxic Epicatechin EC31” (International Journal of Molecular Sciences, 2023).

Read-outs that look alike come from different tables or passages of the source.

One data set concerns K562 cells. Description: Drug resistance level: IC50 of anticancer drugs in K562. The class given is cell-based. Particulars: Homo sapiens, K562, 72 h; 3 days incubation. How it is done:
(§1) In the Western blot membrane, the total P-gp and β-actin expression in each lane was quantified with ImageJ software. The relative P-gp expression was an intensity ratio of P-gp band relative to the β-actin band. The relative P-gp expression of the resistant cell line relative to its respective wild type was presented as a bar chart. The plasma membrane P-gp levels of LCC6MDR and K562/P-gp relative to their wild types were determined through flow cytometry using antihuman P-gp-PE antibodies. (B) LCC6MDR and LCC6. (C) K562/P-gp and K562. (D) the drug resistance levels of three P-gp-overexpressing cell lines and their wild types were studied. The 3 pairs of cell lines were incubated with anticancer drugs paclitaxel (PTX), doxorubicin (DOX), and vincristine (VCR) for 3 days, and the % of cell survival was then determined. Their IC50 (nM) values were calculated using Prism 5.0. RF (relative fold) was a ratio of IC50 of anticancer drugs in a P-gp-overexpressing cell line relative to its respective wild type. N = 3 independent experiments. […] All cell lines were counterstained with DAPI. (E) LCC6 and LCC6MDR, (F) P388 and P338ADR, and (G) K562 and K562/P-gp. Bar = 8 µm. / = not determined.

The subject of the next data set is K562/P-gp cells. In words: Drug resistance level: IC50 of anticancer drugs in K562/P-gp. The class given is cell-based, human. How it is done: as §1
The nature of data set [1]: Pharmacokinetics of methylated catechin derivatives in plasma. The format is in vivo, BALB/c mice. Particulars: BALB/c, mouse; for AUC(0-inf): read-out: AUC0-infinity (converted). The procedure: Figure 4 Pharmacokinetics of methylated catechin derivatives and their effects on the PK of PTX. BALB/c mice were i.v. injected with 10 mg/kg or i.p. injected with 30 mg/kg of modulators. At 10, 30, 60, 180, 420, 840, and 1080 min postadministration, animals were sacrificed to collect their blood, and then the plasma concentration of modulator was determined using UPLC-MS/MS. The % of bioavailability of each modulator injected through i.p. injection route was calculated by comparing it to its plasma level when injected via i.v. injection. […] (E) Pharmacokinetic (PK) profiles of 4 potent methylated catechin derivatives were summarized. (F) The effect of modulators (GC51, EC31, or C25) on the PK of PTX was firstly determined through i.p. injection of modulator at 30 mg/kg 1 h prior to i.v. injection of 12 mg/kg PTX. At 10, 30, 60, 120, 240, and 420 min postadministration of PTX, animals were sacrificed. Plasma level of PTX was quantified through LC/MSMS. The dashed line indicates the corresponding EC50 of modulator in vitro for reversing PTX resistance. […] There were 3 mice at each time point. All pharmacokinetic parameters were calculated with the pharmacokinetic software Summit® PK solution. Two-tailed test was conducted for the AUC value of PTX alone and cotreatment. […] N.S. = not significant. / = not applicable.
In group 1, BALB/c mice were injected intravenously (i.v.) with 10 mg/kg of modulator, and their blood was collected at 10, 30, 60, 120, 240, and 480 min postadministration. In group 2, BALB/c mice were injected intraperitoneally (i.p.) with 30 mg/kg of modulator, and their blood was collected at 10, 30, 60, 180, 420, 840, and 1080 min postadministration.
The pharmacokinetics of PTX was studied with or without the coadministered modulator. PTX (12 mg/kg i.v.) alone was injected into the BALB/c mice. For the combination study, modulator (30 mg/kg i.p.) was injected 1 h before injecting PTX (12 mg/kg i.v.). The blood was collected at 10, 30, 60, 120, 240, and 420 min after PTX administration. Blood samples were spun at 14,000 rpm for 10 min at 4 °C to collect plasma supernatant. Plasma concentration of methylated catechin derivatives or PTX was determined through UPLC-QQQ-MS as described in Section 4.9. Pharmacokinetic parameters were analyzed with PK Solutions 2.0 (Summit Research Service, Ashland, OH, USA).

In data set [2] the test system is P-gp. Description: EC50 for reversing drug resistance in P388ADR cells (cell proliferation assay).
The target in data set [3] is T1, P-gp (Homo sapiens, UniProt P08183). Description: EC50 for reversing drug resistance in K562/P-gp cells (cell proliferation assay). Particulars: EC50 for Reversing MDR.
The target in data set [4] is T1, P-gp. More on the design: expressed in transfected cells; host or cells: MDA435/LCC6MDR (human breast cancer line, gift of Dr. Robert Clarke). The conditions noted are these: Cpds at 1 μM; IC50 of PTX without/with modulator; cited from earlier work.
Data set [5] addresses T1, P-gp. In words: EC50 for reversing drug resistance in LCC6MDR cells (cell proliferation assay). Particulars: EC50 for Reversing MDR, LCC6MDR.
Another data set concerns MRP1. Particulars: Cpds at 1 μM; IC50 of DOX without/with modulator; cited from earlier work.
Data set [6] has as its system P-gp. Description: DOX efflux in P388ADR cells. The format is cell-based, mouse. The conditions noted are these: 1 µM modulator; after 180 min of efflux; P388ADR preloaded with 20 µM DOX. The procedure:
Figure 2 Effect of methylated catechin derivatives on intracellular DOX accumulation and DOX efflux in the P-gp-overexpressing cancer cells. […] Then, the cells were washed, and the intracellular DOX level was measured using flow cytometer. (A) LCC6MDR, (B) P388ADR, and (C) K562/P-gp. […] (D) In the efflux study, P388ADR cells were firstly incubated with 20 µM DOX for 45 min. […] At 60, 120, and 180 min, the cells were harvested, and the intracellular DOX level was measured. At 180 min, ** represents p < 0.01, and *** represents p < 0.001, both being relative to P388ADR incubated with DMSO only. […] N = 3 independent experiments. DMSO was used as a solvent control, and the highest amount used was 0.5%.
We investigated if methylated catechin derivatives could inhibit P-gp-mediated drug efflux in P-gp-overexpressing cells. […] Without a modulator, intracellularly, the DOX level was maintained at 80% and 11% after 180 min for P388 and P388ADR cells, respectively (Figure 2D). […] After 180 min of efflux, the intracellular DOX level could be maintained at 61% (p < 0.001), 59% (p < 0.01), 44 % (p < 0.001), and 37%, respectively (Figure 2D).

The test system of another data set is fibroblast cells. Set-up: method as in PMID 25985195, PMID 34597896. The conditions noted are these: cited from earlier work.
Data set [7] concerns the target T1, P-gp. In words: Vanadate-sensitive P-gp ATPase activity assay (P-gp-Glo). The conditions noted are these: 70 µM.
For data set [8], the system named is P-gp. Set-up: method as in PMID 25985195, PMID 34597896. The conditions noted are these: cited from earlier work.
The mark [9] stands for this setting: read-out: EC50 for Reversing MDR, DOX Resistance, P388ADR, concentration that reduces IC50 of DOX by half.
[10] abbreviates: read-out: EC50 for Reversing MDR, PTX Resistance, P388ADR, concentration that reduces IC50 of PTX by half.
[11] abbreviates: DOX Resistance, K562/P-gp, concentration that reduces IC50 of DOX by half.
Setting [12] is: VCR Resistance, K562, concentration that reduces IC50 of VCR by half, column head prints K562.
The mark [13] stands for this setting: DOX Resistance, concentration that reduces IC50 of DOX by half.
Setting [14] is: PTX Resistance, concentration that reduces IC50 of PTX by half.

By IC50 is commonly meant the concentration needed to halve the response being measured. A word on the AUC(0-t): it is the area under the concentration-time curve up to a stated or last time point. Usually Cmax stands for the peak of the concentration-time curve. The term Tmax denotes the time from dosing to the highest level. One may read the half-life as how long it takes for the measured level to halve.

T1 sequence (P08183 whole entry): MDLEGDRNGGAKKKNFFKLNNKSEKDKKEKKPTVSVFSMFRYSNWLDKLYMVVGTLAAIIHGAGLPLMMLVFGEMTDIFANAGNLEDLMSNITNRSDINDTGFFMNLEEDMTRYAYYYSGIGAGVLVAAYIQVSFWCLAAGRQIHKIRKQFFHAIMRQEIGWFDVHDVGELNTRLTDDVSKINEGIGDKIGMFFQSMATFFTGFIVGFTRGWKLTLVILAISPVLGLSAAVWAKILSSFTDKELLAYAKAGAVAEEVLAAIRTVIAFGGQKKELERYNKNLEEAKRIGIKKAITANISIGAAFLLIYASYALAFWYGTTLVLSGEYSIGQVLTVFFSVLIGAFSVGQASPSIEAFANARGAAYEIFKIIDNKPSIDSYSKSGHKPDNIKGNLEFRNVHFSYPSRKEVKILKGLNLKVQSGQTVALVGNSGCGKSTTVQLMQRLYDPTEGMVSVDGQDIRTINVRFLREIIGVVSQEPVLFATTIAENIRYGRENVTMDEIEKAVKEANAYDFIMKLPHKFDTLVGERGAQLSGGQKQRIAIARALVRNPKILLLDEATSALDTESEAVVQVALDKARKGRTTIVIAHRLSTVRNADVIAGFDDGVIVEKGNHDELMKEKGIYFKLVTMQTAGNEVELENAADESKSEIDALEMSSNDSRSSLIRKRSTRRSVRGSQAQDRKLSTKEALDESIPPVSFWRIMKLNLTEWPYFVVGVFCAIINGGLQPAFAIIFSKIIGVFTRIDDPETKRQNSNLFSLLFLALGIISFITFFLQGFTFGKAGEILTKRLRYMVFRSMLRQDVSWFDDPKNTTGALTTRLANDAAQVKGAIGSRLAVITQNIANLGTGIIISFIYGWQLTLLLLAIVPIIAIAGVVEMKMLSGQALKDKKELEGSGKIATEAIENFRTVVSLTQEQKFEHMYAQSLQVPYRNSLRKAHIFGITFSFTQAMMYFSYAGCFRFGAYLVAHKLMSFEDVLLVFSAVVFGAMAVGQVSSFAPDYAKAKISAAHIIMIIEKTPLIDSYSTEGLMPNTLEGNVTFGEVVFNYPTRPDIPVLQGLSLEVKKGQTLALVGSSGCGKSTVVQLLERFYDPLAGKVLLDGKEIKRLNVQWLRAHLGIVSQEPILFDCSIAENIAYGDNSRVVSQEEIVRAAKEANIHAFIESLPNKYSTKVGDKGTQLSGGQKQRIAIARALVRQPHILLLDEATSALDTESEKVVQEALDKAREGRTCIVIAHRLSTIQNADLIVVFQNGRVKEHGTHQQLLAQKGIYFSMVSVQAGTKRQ

With `CC[C@]1(O)C[C@H]2CN(CCc3c([nH]c4ccccc34)[C@@](C(=O)OC)(c3cc4c(cc3OC)N(C=O)[C@H]3[C@@](O)(C(=O)OC)[C@H](OC(C)=O)[C@]5(CC)C=CCN6CC[C@]43[C@@H]65)C2)C1` [VCR, vincristine], the IC50 stood at 0.5 ± 0.1 nM with K562 cells and 84.1 ± 6.4 nM with K562/P-gp cells (Homo sapiens, K562, 72 h, 3 days incubation). Besides, the “RF (relative fold)” value with K562/P-gp cells (IC50 in K562/P-gp relative to K562) was 168.2.
With `COc1cc(OC)c2c(c1)OC(c1cc(OC)c(OC)c(OC)c1)C(OC(=O)C=Cc1cc(OC)c(OC)c(OC)c1)C2` (centres unmarked) [EGC23], in data set [1] (ip, 30 mg/kg), the AUC(0-t) is […], the Cmax came out at 2210 ng/mL, the Tmax is 1 h and the half-life turned out to be 2.45 h. Also, the AUC(0-inf) in data set [1] (ip, 30 mg/kg) was 7090 ng·h/mL. In data set [1] (iv, 10 mg/kg), the AUC(0-t) was 3190 ng·h/mL, the half-life stood at 0.538 h and the AUC(0-inf) was 3210 ng·h/mL. Further, the EC50 in the data set with P-gp [2] (setting [9]) amounted to […]. Besides, in the data set with P-gp [2] (setting [10]), the EC50 was […].
On to `COc1cc(OC)c2c(c1)O[C@H](c1cc(OC)c(OC)c(OC)c1)[C@@H](OC(=O)c1ccc(F)c(NC(=O)c3cc(OC)c(OC)c(OC)c3)c1)C2` [GC51], for which the EC50 was found to be 129 ± 36 nM on P-gp [3] (setting [11]); 77 ± 7 nM at P-gp [3] (setting [12]); 233 ± 36 nM on P-gp [5] (setting [13]); 82 ± 14 nM at P-gp [5] (setting [14]); 335 ± 15 nM in the data set on P-gp [2] (setting [9]); 496 ± 12 nM with P-gp [2] (setting [10]). Further, the “LCC6MDR P-gp-modulating activity RF (relative fold)” value on P-gp [4] is 52.6. The AUC(0-t) in [1] (ip, 30 mg/kg) is 24500 ng·h/mL; in [1] (iv, 10 mg/kg) it was 13000 ng·h/mL. In addition, the Cmax in data set [1] (ip, 30 mg/kg) stood at 6120 ng/mL. In data set [1] (ip, 30 mg/kg), the Tmax is 1 h. Moreover, the half-life was 3.83 h in [1] (ip, 30 mg/kg) and 1.52 h in [1] (iv, 10 mg/kg). Further, the AUC(0-inf) was 25700 ng·h/mL in [1] (ip, 30 mg/kg) and 13600 ng·h/mL in data set [1] (iv, 10 mg/kg). For the same molecule, the “2008MRP1 MRP1-modulating activity RF (relative fold)” value with MRP1 is listed as 3.0. The “Relative intracellular DOX level (%)” value with P-gp [6] turned out to be 59%.
Take `COc1cc(OC)c2c(c1)O[C@H](c1ccc(OC)c(OC)c1)[C@@H](OC(=O)c1ccc(F)c(NC(=O)c3cc(OC)c(OC)c(OC)c3)c1)C2` [C25]: the EC50 came to 93 ± 21 nM at P-gp [3] (setting [11]); 60 ± 12 nM at P-gp [3] (setting [12]); 180 ± 18 nM at P-gp [5] (setting [13]); 91 ± 5 nM on P-gp [5] (setting [14]); 260 ± 60 nM in the data set on P-gp [2] (setting [9]); 216 ± 10 nM with P-gp [2] (setting [10]). Besides, the “LCC6MDR P-gp-modulating activity RF (relative fold)” value at P-gp [4] is recorded as 84.7. For the same molecule, in the data set with fibroblast cells, the IC50 was greater than 100000 nM. Also, the “P-gp ATPase activity, fold change relative to basal” value at P-gp [7] is no more than 1.6 fold. Also, the AUC(0-t) in data set [1] (ip, 30 mg/kg) was 21200 ng·h/mL; in [1] (iv, 10 mg/kg) it was 8870 ng·h/mL. For the same molecule, the Cmax in [1] (ip, 30 mg/kg) was 5260 ng/mL. The Tmax in [1] (ip, 30 mg/kg) is 1 h. For the same molecule, the half-life in data set [1] (ip, 30 mg/kg) turned out to be 3.12 h; in data set [1] (iv, 10 mg/kg), 0.85 h. For the same molecule, the AUC(0-inf) in data set [1] (ip, 30 mg/kg) is 21600 ng·h/mL; in data set [1] (iv, 10 mg/kg), 8890 ng·h/mL. Also, the “2008MRP1 MRP1-modulating activity RF (relative fold)” value with MRP1 is reported as 1.2. Moreover, in the data set with P-gp [8], the “effect on plasma membrane level of P-gp” value was “did not affect”. Further, the “Relative intracellular DOX level (%)” value with P-gp [6] was 37%.
